Assay results from patent US20250115582A1, “MOLECULAR GLUE DEGRADERS AND METHODS OF USING THE SAME” (Monte Rosa Therapeutics, Inc., priority 2022, published 2025).
pIC50: −log10 of the molar value. Where a name gives a salt, the structure may show the parent alone.

How the values were obtained:
[1] = molecular target: T1, CK1α (Homo sapiens, UniProt P48729+Q96SW2); experiment: CK1α NanoBiT assay (HiBiT-tagged CSNK1A1 in HEK293 clonal line); format: cell-based; conditions: HEK293 HiBiT-CSNK1A1/LgBiT cells, 24 h incubation, luminescence
T1 construct: HEK293 clonal line with CRISPR KI HiBiT tag on CSNK1A1; host or cells: HEK293 clonal line, CRISPR HiBiT knock-in at CSNK1A1, stably expressing LgBiT
T1 sequence (P48729 whole entry): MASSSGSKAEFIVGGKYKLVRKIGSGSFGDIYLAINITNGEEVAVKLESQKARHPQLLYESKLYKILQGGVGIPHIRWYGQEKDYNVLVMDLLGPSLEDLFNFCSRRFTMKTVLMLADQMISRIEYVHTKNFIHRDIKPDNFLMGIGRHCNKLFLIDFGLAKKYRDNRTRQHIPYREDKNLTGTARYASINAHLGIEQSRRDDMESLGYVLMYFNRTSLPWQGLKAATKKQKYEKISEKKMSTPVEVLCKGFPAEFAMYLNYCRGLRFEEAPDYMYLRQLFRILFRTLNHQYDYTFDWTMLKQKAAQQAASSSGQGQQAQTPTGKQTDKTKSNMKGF
T1 sequence (Q96SW2 whole entry): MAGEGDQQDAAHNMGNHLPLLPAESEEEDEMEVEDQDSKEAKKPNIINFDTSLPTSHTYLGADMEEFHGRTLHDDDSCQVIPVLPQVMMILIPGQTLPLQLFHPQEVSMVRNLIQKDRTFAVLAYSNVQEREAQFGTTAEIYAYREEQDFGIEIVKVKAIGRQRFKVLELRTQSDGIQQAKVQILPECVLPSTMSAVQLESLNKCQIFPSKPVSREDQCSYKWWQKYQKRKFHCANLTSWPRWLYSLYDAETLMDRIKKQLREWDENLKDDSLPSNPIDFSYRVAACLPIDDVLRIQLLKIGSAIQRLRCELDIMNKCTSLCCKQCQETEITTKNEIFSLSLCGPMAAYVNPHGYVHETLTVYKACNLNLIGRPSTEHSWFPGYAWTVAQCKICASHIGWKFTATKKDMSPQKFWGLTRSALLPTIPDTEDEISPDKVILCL
T1 sequence (Q16531 2-1140 partner limits assumed): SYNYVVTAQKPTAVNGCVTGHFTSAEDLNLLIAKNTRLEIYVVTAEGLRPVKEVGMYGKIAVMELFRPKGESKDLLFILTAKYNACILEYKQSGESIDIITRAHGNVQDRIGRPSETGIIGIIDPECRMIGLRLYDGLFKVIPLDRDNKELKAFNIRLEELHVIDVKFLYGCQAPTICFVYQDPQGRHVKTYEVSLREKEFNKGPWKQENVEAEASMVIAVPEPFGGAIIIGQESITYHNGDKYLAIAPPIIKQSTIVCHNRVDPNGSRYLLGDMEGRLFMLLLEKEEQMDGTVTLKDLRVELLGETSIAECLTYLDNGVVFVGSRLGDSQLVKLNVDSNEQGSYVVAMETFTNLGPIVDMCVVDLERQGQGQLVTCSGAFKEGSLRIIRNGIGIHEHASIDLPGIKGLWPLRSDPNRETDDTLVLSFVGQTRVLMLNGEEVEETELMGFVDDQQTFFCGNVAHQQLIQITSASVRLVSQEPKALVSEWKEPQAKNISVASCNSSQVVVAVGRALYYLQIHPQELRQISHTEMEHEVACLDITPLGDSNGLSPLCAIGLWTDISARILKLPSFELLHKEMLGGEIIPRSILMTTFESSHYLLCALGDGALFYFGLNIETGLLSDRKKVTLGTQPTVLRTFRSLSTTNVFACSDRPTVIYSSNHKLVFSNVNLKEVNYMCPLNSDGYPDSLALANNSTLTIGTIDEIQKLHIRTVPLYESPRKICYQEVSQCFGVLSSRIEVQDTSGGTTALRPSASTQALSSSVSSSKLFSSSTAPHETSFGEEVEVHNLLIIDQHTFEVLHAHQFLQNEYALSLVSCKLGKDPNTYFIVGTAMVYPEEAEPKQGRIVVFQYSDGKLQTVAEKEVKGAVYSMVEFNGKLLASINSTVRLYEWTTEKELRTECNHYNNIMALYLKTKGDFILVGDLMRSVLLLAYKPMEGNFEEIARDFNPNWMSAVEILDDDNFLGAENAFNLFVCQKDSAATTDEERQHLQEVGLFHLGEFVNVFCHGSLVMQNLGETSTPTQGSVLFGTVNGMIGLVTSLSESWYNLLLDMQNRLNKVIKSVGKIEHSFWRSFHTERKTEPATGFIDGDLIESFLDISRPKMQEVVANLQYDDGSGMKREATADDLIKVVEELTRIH
Procedure: HEK293 clonal line with CRISPR KI HiBiT tag on CSNK1A1 and stably expressing LgBiT protein was obtained from Promega (Madison, WI). Cells were plated at 5000 cells per well using Multiflo (BioTek) in 384-well white solid bottom plates (Corning, 3570BC) in […] volume in DMEM media (DMEM, high glucose, HEPES, no phenol red (ThermoFisher Scientific, 21063029)) containing 10% FBS (Corning, 35-075-CV), 1% Penicillin/Streptomycin ((ThermoFisher Scientific, 15140-122), and 0.2% Endurazine (Nano-Glo Endurazine Live Cell Substrate (Promega, N2571)). Cells were incubated for 16 hours at 37C, 5% CO2. Depending on experiment 25 or 75 nL of a compound at 10 mM were added into the plate using an Echo®650 liquid handler (Labcyte) to achieve final concentration of […] in wells. Cells were incubated at 37° C., 5% CO2 for 24 hours followed by signal was read on Pherastar FSX using “LUM plus” optic module.
Data analysis was performed using Scinamic (Scinamic, Cambridge, MA).
Luminescence response (R) was calculated by the formula: response=100*(S−N)/(P−N), where S is the signal of the well, N and P the mean negative and positive control values, respectively, of the same plate. The luminescence response was then fitted in Scinamic using a 3-parameter agonist logistic fit (hillslope=1, EC50>0, top/bottom unconstrained).
DC50 data are reported in Table 2 for compounds in Table 1. In Table 2 below, According to the code, A represents a DC50 value of ≤0.1 μM, B represents a DC50 value>0.1 μM and ≤1 μM, C represents an DC50 value>1 μM.

[2] = molecular target: CRBN/DDB1 (Homo sapiens, UniProt Q96SW2); experiment: HTRF binding assay (thalidomide probe displacement from CRBN/DDB1); conditions: CRBN/DDB1 2.5 nM, Cy5-Thalidomide 100 nM, 30 min; geometric mean; read-out: HTRF_Thali_Disp_DR—geo_IC50
Sequence of CRBN/DDB1 (Q96SW2 whole entry): as the sequence (Q96SW2 whole entry) above
Sequence of CRBN/DDB1 (Q16531 whole entry partner): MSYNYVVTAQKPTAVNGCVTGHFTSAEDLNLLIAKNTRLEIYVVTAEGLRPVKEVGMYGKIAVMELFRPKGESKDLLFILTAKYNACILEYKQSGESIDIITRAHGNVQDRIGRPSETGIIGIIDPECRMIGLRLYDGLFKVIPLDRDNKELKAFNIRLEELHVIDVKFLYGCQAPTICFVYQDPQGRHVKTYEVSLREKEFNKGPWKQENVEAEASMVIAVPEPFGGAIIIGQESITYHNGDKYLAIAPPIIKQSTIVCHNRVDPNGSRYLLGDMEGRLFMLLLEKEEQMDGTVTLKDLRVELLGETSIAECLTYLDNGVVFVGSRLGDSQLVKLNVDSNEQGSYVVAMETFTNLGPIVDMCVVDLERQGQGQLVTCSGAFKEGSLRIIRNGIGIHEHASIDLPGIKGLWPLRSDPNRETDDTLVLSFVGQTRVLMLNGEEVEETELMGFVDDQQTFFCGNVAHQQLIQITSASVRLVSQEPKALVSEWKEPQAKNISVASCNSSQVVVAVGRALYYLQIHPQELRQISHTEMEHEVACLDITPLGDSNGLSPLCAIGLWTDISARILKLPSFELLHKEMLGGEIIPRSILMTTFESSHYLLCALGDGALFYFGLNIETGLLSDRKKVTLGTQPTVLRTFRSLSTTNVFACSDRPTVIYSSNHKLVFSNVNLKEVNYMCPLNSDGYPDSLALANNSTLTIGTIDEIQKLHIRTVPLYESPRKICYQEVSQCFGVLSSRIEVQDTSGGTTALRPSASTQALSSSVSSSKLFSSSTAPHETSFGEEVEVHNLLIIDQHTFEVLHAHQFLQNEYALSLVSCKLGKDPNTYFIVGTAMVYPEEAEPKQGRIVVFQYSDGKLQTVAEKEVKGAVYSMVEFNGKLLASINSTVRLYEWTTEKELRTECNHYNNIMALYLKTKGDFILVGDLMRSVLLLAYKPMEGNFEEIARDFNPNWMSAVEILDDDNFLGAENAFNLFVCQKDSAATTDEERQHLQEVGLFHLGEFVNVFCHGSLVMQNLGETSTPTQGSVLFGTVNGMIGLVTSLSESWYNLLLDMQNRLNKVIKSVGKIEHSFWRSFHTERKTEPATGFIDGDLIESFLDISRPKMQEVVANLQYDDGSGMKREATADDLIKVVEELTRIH
Text: Binding of test compounds to CRBN/DDB1 was monitored in an HTRF assay using 1-[5-({2-[2-(2-{[2-(2,6-dioxopiperidin-3-yl)-1,3-dioxo-2,3-dihydro-1H-isoindol-4-yl]oxy}acetamido)ethoxy]ethyl}carbamoyl)pentyl]-3,3-dimethyl-2-[(1E,3E)-5-[(2E)-1,3,3-trimethyl-5-sulfo-2,3-dihydro-1H-indol-2-ylidene]penta-1,3-dien-1-yl]-3H-indol-1-ium-5-sulfonate as a fluorescent probe. In this assay, compounds displace the fluorescently labeled thalidomide-based probe bound to CRBN and fluorescence is monitored with increasing compound concentration. Assays were conducted in Greiner white 384 well HiBase plates (Cat. No 784075-25) in 10 μL total volume. A one pot detection solution of CRBN/DDB1 (2.5 nM), anti-His Terbium Cryptate Gold (1×, PerkinElmer Cat. #: 61HI2TLB), and Cy5-Thalidomide (100 nM, Tenova Cat.: T52461) was prepared in 20 mM HEPES, 20 mM NaCl, 0.2 mM TCEP, 0.2 mM EDTA, and 0.005% Tween20 was dispensed to each assay plate. Test compounds were stored in dry, ambient temperatures at 10 mM. A 10-point, 1:3 dilution series was prepared from 10 mM stock concentrations in Echo-compatible LDV plates. 10 nL of each compound dilution series was dispensed into assays wells using an Echo 650 (Labcyte inc. USA). 10 nL of 10 mM lenalidomide (Selleckchem Cat no. S1029) was transferred into the active-control wells for the assay and 10 nL of DMSO was transferred into the negative control wells. The assay was then allowed to incubate for 30 min at ambient temperature after transferring the test compounds. Plate measurements were taken on a Pherastar FSX (BMG Labtech, Germany) using the HTRF Red filter (Ex. 337 nm, eml: 620 nm, em2: 665 nm) (Flashes: 50, Integration time: 60-400 μs, Z-height: 10 mm, Ratio-multiplier: 10,000). Analysis, HTRF ratio and IC50 values were derived using KNIME analytics (KNIME Zurich) transformation and fitting within Collaborative Drug Discovery (Collaborative Drug Discovery USA) using a 4-parameter logistic fit. HTRF ratio calculation was performed using the following formula: […]
where em665nm represents the measured emission at 665 nm upon excitation at 337 nm and em620nm the measured emission at 620 nm upon excitation at 337 nm. The 4 parameter logistic fitting model was performed using the following formula: […]
where Y represents the HTRF ratio response (as defined previously), X the compound concentration in μM, Ymin the minimum response plateau, Ymax the maximum response plateau, IC50 the concentration of agonist that gives a response half way between Ymin and Ymax and HillSlope the steepness of the family of curves. No fitting model constraints was applied on Ymin, or Ymax whilst IC50>0 and −0.5>HillSlope>−3
Ki values were derived from the geometric mean of the IC50 values using the Cheng-Prusoff transformation:
where [L] represents the concentration of fluorescent probe in μM, Kd the affinity (binding constant) of the fluorescent probe in units of μM and IC50 the concentration of agonist that gives a response halfway between Ymin and Ymax (as described in 1.2.1)
Analysis and IC50 values were derived using KNIME analytics (KNIME, Zurich) transformation and fitting within Collaborative Drug Discovery (Collaborative Drug Discovery, USA) as described in 1.2.1. Ki values were derived from the geometric mean of the IC50 values using the Cheng-Prusoff transformation as described in 2.2.2. Data was visualized in GraphPad Prism 8.1.2 (GraphPad, USA) and reported as mean and standard deviation. Microsoft Office Excel 2012 (Redmond, WA) was used for calculation of mean and standard deviation.
IC50 data are reported in Table 3 for compounds in Table 1. In Table 3 below, According to the code, A represents a IC50 value of ≤0.1 μM, B represents a IC50 value≥0.1 μM and ≤1 μM, C represents an IC50 value>1 μM.

Compound: O=C1CCC(N2Cc3cc(NC(=O)c4ccccc4F)ccc3C2=O)C(=O)N1 (centres unmarked) [Compound 143, N-(2-(2,6-dioxopiperidin-3-yl)-1-oxoisoindolin-5-yl)-2-fluorobenzamide]
- DC50 [1]: 0.1 to 1 µM
- pIC50 [2]: 6.00 to 7.00

Compound: N#Cc1ccccc1C(=O)Nc1ccc2c(c1)CN(C1CCC(=O)NC1=O)C2=O (centres unmarked) [Compound 118, 2-cyano-N-(2-(2,6-dioxopiperidin-3-yl)-1-oxoisoindolin-5-yl)benzamide]
- DC50 [1]: > 1 µM
- pIC50 [2]: 6.00 to 7.00

Compound: COCc1c(C(=O)Nc2ccc3c(c2)CN(C2CCC(=O)NC2=O)C3=O)ncn1-c1ccccc1 (centres unmarked) [Compound 159, N-(2-(2,6-dioxopiperidin-3-yl)-1-oxoisoindolin-5-yl)-5-(methoxymethyl)-1-phenyl-1H-imidazole-4-carboxamide]
- DC50 [1]: 0.1 to 1 µM
- pIC50 [2]: 6.00 to 7.00

Compound: O=C1CCC(N2Cc3cc(NC(=O)c4ncc[nH]4)ccc3C2=O)C(=O)N1 (centres unmarked) [Compound 107, N-(2-(2,6-dioxopiperidin-3-yl)-1-oxoisoindolin-5-yl)-1H-imidazole-2-carboxamide]
- DC50 [1]: 0.1 to 1 µM
- pIC50 [2]: 6.00 to 7.00

Compound: O=C1CCC(N2Cc3cc(NC(=O)c4ccc(C(F)(F)F)cc4)ccc3C2=O)C(=O)N1 (centres unmarked) [Compound 122, N-(2-(2,6-dioxopiperidin-3-yl)-1-oxoisoindolin-5-yl)-4-(trifluoromethyl)benzamide]
- DC50 [1]: < 0.1 µM
- pIC50 [2]: 6.00 to 7.00

Compound: CC(C)Cc1ccccc1C(=O)Nc1ccc2c(c1)CN(C1CCC(=O)NC1=O)C2=O (centres unmarked) [Compound 134, N-(2-(2,6-dioxopiperidin-3-yl)-1-oxoisoindolin-5-yl)-2-isobutylbenzamide]
- DC50 [1]: 0.1 to 1 µM
- pIC50 [2]: 6.00 to 7.00

Compound: O=C1CCC(N2Cc3cc(NC(=O)c4cccc5c4CCC5)ccc3C2=O)C(=O)N1 (centres unmarked) [Compound 129, N-(2-(2,6-dioxopiperidin-3-yl)-1-oxoisoindolin-5-yl)-2,3-dihydro-1H-indene-4-carboxamide]
- DC50 [1]: < 0.1 µM
- pIC50 [2]: 6.00 to 7.00

Compound: COCc1nc(C(=O)Nc2ccc3c(c2)CN(C2CCC(=O)NC2=O)C3=O)cn1-c1ccccc1 (centres unmarked) [Compound 157, N-(2-(2,6-dioxopiperidin-3-yl)-1-oxoisoindolin-5-yl)-2-(methoxymethyl)-1-phenyl-1H-imidazole-4-carboxamide]
- DC50 [1]: < 0.1 µM
- pIC50 [2]: ≥ 7.00

Compound: O=C1CCC(N2Cc3cc(NC(=O)Cc4ccccn4)ccc3C2=O)C(=O)N1 (centres unmarked) [Compound 108, N-(2-(2,6-dioxopiperidin-3-yl)-1-oxoisoindolin-5-yl)-2-(pyridine-2-yl)acetamide]
- DC50 [1]: > 1 µM
- pIC50 [2]: 6.00 to 7.00

Compound: O=C1CCC(N2Cc3cc(NC(=O)c4ccccc4C4CCCC4)ccc3C2=O)C(=O)N1 (centres unmarked) [Compound 128, 2-cyclopentyl-N-(2-(2,6-dioxopiperidin-3-yl)-1-oxoisoindolin-5-yl)benzamide formate]
- DC50 [1]: > 1 µM
- pIC50 [2]: 6.00 to 7.00

Compound: O=C1CCC(N2Cc3cc(NC(=O)c4cccc(F)c4)ccc3C2=O)C(=O)N1 (centres unmarked) [Compound 142, N-(2-(2,6-dioxopiperidin-3-yl)-1-oxoisoindolin-5-yl)-3-fluorobenzamide]
- DC50 [1]: < 0.1 µM
- pIC50 [2]: 6.00 to 7.00

Compound: O=C1CCC(N2Cc3cc(NC(=O)c4cccc5c4CCCC5)ccc3C2=O)C(=O)N1 (centres unmarked) [Compound 135, N-(2-(2,6-dioxopiperidin-3-yl)-1-oxoisoindolin-5-yl)-5,6,7,8-tetrahydronaphthalene-1-carboxamide]
- pIC50 [2]: 6.00 to 7.00

Compound: O=C1CCC(N2Cc3cc(NC(=O)c4cccc5c4CC(=O)N5)ccc3C2=O)C(=O)N1 (centres unmarked) [Compound 124, N-(2-(2,6-dioxopiperidin-3-yl)-1-oxoisoindolin-5-yl)-2-oxoindoline-4-carboxamide]
- DC50 [1]: 0.1 to 1 µM
- pIC50 [2]: ≥ 7.00

Compound: Cc1ccc(CC(=O)Nc2ccc3c(c2)CN(C2CCC(=O)NC2=O)C3=O)cn1 (centres unmarked) [Compound 152]
- DC50 [1]: > 1 µM

Compound: Cc1ccc(C(=O)Nc2ccc3c(c2)CN(C2CCC(=O)NC2=O)C3=O)cc1 (centres unmarked) [Compound 127, N-(2-(2,6-dioxopiperidin-3-yl)-1-oxoisoindolin-5-yl)-4-methylbenzamide]
- DC50 [1]: < 0.1 µM
- pIC50 [2]: 6.00 to 7.00

Compound: Cc1ccccc1C(=O)Nc1ccc2c(c1)CN(C1CCC(=O)NC1=O)C2=O (centres unmarked) [Compound 132, N-(2-(2,6-dioxo-3-piperidyl)-1-oxo-isoindolin-5-yl)-2-methyl-benzamide]
- DC50 [1]: 0.1 to 1 µM
- pIC50 [2]: 6.00 to 7.00

Compound: Cc1cccc(C(=O)Nc2ccc3c(c2)CN(C2CCC(=O)NC2=O)C3=O)c1 (centres unmarked) [Compound 139, N-(2-(2,6-dioxopiperidin-3-yl)-1-oxoisoindolin-5-yl)-3-methylbenzamide]
- DC50 [1]: < 0.1 µM
- pIC50 [2]: 6.00 to 7.00

Compound: Cc1ccc(C(=O)Nc2ccc3c(c2)CN(C2CCC(=O)NC2=O)C3=O)cn1 (centres unmarked) [Compound 123, N-(2-(2,6-dioxopiperidin-3-yl)-1-oxoisoindolin-5-yl)-6-methylnicotinamide]
- DC50 [1]: 0.1 to 1 µM
- pIC50 [2]: 6.00 to 7.00

Compound: O=C1CCC(N2Cc3cc(NC(=O)C4(C(F)(F)F)CCN(c5ccccn5)C4)ccc3C2=O)C(=O)N1 (centres unmarked) [Compound 150]
- DC50 [1]: 0.1 to 1 µM

Compound: O=C1CCC(N2Cc3cc(NC(=O)Cc4ccccc4)ccc3C2=O)C(=O)N1 (centres unmarked) [Compound 151]
- DC50 [1]: 0.1 to 1 µM

Compound: Cc1cc(C(=O)Nc2ccc3c(c2)CN(C2CCC(=O)NC2=O)C3=O)ccn1 (centres unmarked) [Compound 138, N-(2-(2,6-dioxopiperidin-3-yl)-1-oxoisoindolin-5-yl)-2-methylisonicotinamide]
- DC50 [1]: > 1 µM

Compound: CN(C(=O)c1ccc(Cl)cc1)c1ccc2c(c1)CN(C1CCC(=O)NC1=O)C2=O (centres unmarked) [Compound 153]
- DC50 [1]: > 1 µM

Compound: O=C1CCC(N2Cc3cc(NC(=O)c4ccccc4CC(F)(F)F)ccc3C2=O)C(=O)N1 (centres unmarked) [Compound 113, N-(2-(2,6-dioxopiperidin-3-yl)-1-oxoisoindolin-5-yl)-2-(2,2,2-trifluoroethyl)benzamide]
- DC50 [1]: 0.1 to 1 µM

Compound: COc1ccc(CC(=O)Nc2ccc3c(c2)CN(C2CCC(=O)NC2=O)C3=O)cc1 (centres unmarked) [Compound 149, N-(2-(2,6-dioxopiperidin-3-yl)-1-oxoisoindolin-5-yl)-2-(4-methoxyphenyl)acetamide]
- DC50 [1]: 0.1 to 1 µM

Compound: O=C1CCC(N2Cc3cc(NC(=O)c4cccc(Cl)c4)ccc3C2=O)C(=O)N1 (centres unmarked) [Compound 145]
- DC50 [1]: < 0.1 µM
